Reference: patent US11427549B2, “Pyrimidinyloxy benzo-fused compounds as herbicides” (FMC Corporation, priority 2017, dated 2022)

Tests used:
[1] = tested on: foxtail, giant (giant foxtail, Setaria faberii); test: Test A postemergence, foxtail, giant; assay type: in vivo; conditions: Setaria faberi, post-emergence, 240 h, 0 to 100 scale (0 no effect, 100 complete control), read-out: Plant response rating, Foxtail, Giant; for pest or weed control at 31 g/ha: 31 g ai/ha; for pest or weed control at 125 g/ha: 125 g ai/ha
Source text: (§1) Seeds of plant species selected from barnyardgrass (Echinochloa crus-galli), kochia (Kochia scoparia), ragweed (common ragweed, Ambrosia elatior), ryegrass, Italian (Italian ryegrass, Lolium multiflorum), foxtail, giant (giant foxtail, Setaria faberii), foxtail, green (green foxtail, Setaria viridis) and pigweed (Amaranthus retroflexus) were planted into a blend of loam soil and sand and treated preemergence with a directed soil spray using test chemicals formulated in a non-phytotoxic solvent mixture which included a surfactant.
(§2) At the same time, plants selected from these weed species and also wheat (Triticum aestivum), corn (Zea mays), blackgrass (Alopecurus myosuroides), and galium (catchweed bedstraw, Galium aparine) were planted in pots containing the same blend of loam soil and sand and treated with postemergence applications of test chemicals formulated in the same manner. Plants ranged in height from 2 to 10 cm and were in the one- to two-leaf stage for the postemergence treatment. Treated plants and untreated controls were maintained in a greenhouse for approximately 10 days, after which time all treated plants were compared to untreated controls and visually evaluated for injury. […] A dash (-) response means no test result.

[2] = tested on: foxtail, green (green foxtail, Setaria viridis); test: Test A postemergence, foxtail, green; assay type: in vivo; conditions: Setaria, post-emergence, 240 h, 0 to 100 scale (0 no effect, 100 complete control), read-out: Plant response rating, Foxtail, Green
Source text: as §1, §2

[3] = tested on: foxtail, green (green foxtail, Setaria viridis); test: Test A preemergence, foxtail, green; assay type: in vivo; conditions: Setaria, pre-emergence, 240 h, 0 to 100 scale (0 no effect, 100 complete control), read-out: Plant response rating, Foxtail, Green
Source text: as §1, §2

Compound | pest or weed control at 31 g/ha [1] [%] | pest or weed control at 125 g/ha [1] [%] | melting point [°C] | pest or weed control at 31 g/ha ([2]; 31 g ai/ha) [%] | pest or weed control at 125 g/ha ([2]; 125 g ai/ha) [%] | pest or weed control at 31 g/ha ([3]; 31 g ai/ha) [%] | pest or weed control at 125 g/ha ([3]; 125 g ai/ha) [%]
O=C1Cc2cccc(Oc3ncc(Cl)cn3)c2C(CCCC(F)(F)F)O1 (centres unmarked) [Compound 17, 8-[(5-Chloro-2-pyrimidinyl)oxy]-1,4-dihydro-1-(4,4,4-trifluorobutyl)-3H-2-benzopyran-3-one] | 20 | 40 | 125 to 129 |  |  |  | 
CCCC1OC(=O)Cc2cccc(Oc3ncc(Cl)cn3)c21 (centres unmarked) [Compound 35, 8-[(5-Chloro-2-pyrimidinyl)oxy]-1,4-dihydro-1-propyl-3H-2-benzopyran-3-one] |  |  | 136 to 140 | 10 | 10 | 0 | 10
O=C1OC(CCC(F)(F)F)Cc2c(Oc3ncc(Cl)cn3)cccc21 (centres unmarked) [Compound 23, 5-[(5-Chloro-2-pyrimidinyl)oxy]-3,4-dihydro-3-(3,3,3-trifluoropropyl)-1H-2-benzopyran-1-one] | 0 | 10 | 117 to 121 |  |  |  | 
O=C1O[C@@H](CCC(F)(F)F)c2c(Oc3ncc(Cl)cn3)cccc21 [Compound 18, (3S)-4-[(5-Chloro-2-pyrimidinyl)oxy]-3-(3,3,3-trifluoropropyl)-1(3H)-isobenzofuranone] | 0 | 0 | 99 to 101 |  |  |  | 
O=C1O[C@H](CCC(F)(F)F)c2c(Oc3ncc(Cl)cn3)cccc21 [Compound 19, (3R)-4-[(5-Chloro-2-pyrimidinyl)oxy]-3-(3,3,3-trifluoropropyl)-1(3H)-isobenzofuranone] | 60 | 90 | 94 to 99 |  |  |  | 
O=C1Cc2cccc(Oc3ncc(Cl)cn3)c2C(CCC(F)(F)F)O1 (centres unmarked) [Compound 28, 8-[(5-Chloro-2-pyrimidinyl)oxy]-1,4-dihydro-1-(3,3,3-trifluoropropyl)-3H-2-benzopyran-3-one] | 10 | 20 | 122 to 126 |  |  |  | 
O=C1OC(CCCCC(F)(F)F)Cc2c(Oc3ncc(Cl)cn3)cccc21 (centres unmarked) [Compound 31, 5-[(5-Chloro-2-pyrimidinyl)oxy]-3,4-dihydro-3-(5,5,5-trifluoropentyl)-1H-2-benzopyran-1-one] | 0 | 0 | 93 to 97 |  |  |  | 
